Reference: US10711000B2 (Fronthera U.S. Pharmaceuticals LLC, priority 2018, dated 2020)

Assay: Pharmacokinetics after a single oral dose in SD rats
Assay type: in vivo
Conditions: Sprague-Dawley, rat, plasma, single oral dose in 0.5% methylcellulose; for half-life: read-out: T½ (converted)
Text: The pharmacokinetics and pharmacodynamics of test compounds after a single oral dose were investigated in SD rats, Beagle dog and Cynomolgus monkey. SD Rats (200-250 g) were purchased from Beijing Vital River Laboratory Animal Technology Co., Ltd. Male Beagle Dog, 6-9 kg, were purchased from Beijing Mashall. Male Cynomolgus monkeys, 3-5 kg, were purchased from Suzhou Xishan Zhongke Drugs Research and Development Co., Ltd. Following arrival, the animals were acclimated for 7 days in individual cages maintained at ambient temperature, 34 to 68% relative humidity, and 12-h light/dark cycles. Just prior to dose administration the rats were fasted overnight with free access to water. Animals were given 10 mL/kg of formulated compound in 0.5% methylcellulose (MC) by oral gavage, and the animals were fed four hours after dosing. The animals were manually restrained at the designated time points (pre-dose, 0.5, 1, 3, 6, 9, 12, and 24 h post-dose) to collect blood. Approximately 120 μL of blood was collected via orbital sinus into K2EDTA tubes. The blood samples were centrifuged at 5000 rpm for 10 min at 4° C. to obtain plasma samples.
To determine the compound concentration in the plasma samples, a 10× calibration standard of compound were prepared by serial dilution in DMSO: 20000, 10000, 5000, 2000, 1000, 500, 200, 100, 50, 20, and 10 ng/mL. 3 μL of calibration standard solution was added into 27.0 μL of blank plasma in 1.5-mL microcentrifuge tubes to generate 1× calibration standards. The 30.0 μL of standards or study plasma was mixed with 200 μL of acetonitrile (containing 5 ng/mL verapamil for internal control) in a 1.5-mL microcentrifuge tube. After vertexing for 1 minute and centrifuging at 10000 rpm for 10 min, 180 μL of supernatant was transferred into a 96-well plate and the compound concentration in the plasma was quantitated using LC/MS/MS together with standards. Briefly, 1 μL of the solutions were injected for LC-MS/MS analysis using an Agilent Zorbax C18 column (50×2.1 mm, 3.5 μm) with mobile phase A [5 mM NH4Ac (0.1% FA)] and phase B [Methanol (0.1% FA)]. Mass spectrometer parameters optimization for compound was performed by infusing standard diluted at 1 μg/mL in water/methanol (1/1, v/v) directly in the ionization source at a flow of 10 μL/min. Quantitative data were acquired in multiple reaction monitoring (MRM) positive APCI mode.

AUC	Cmax	half-life	SMILES
7520 ± 498 ng·h/mL	732 ± 95 ng/mL	5.53 ± 0.2 h	CCc1nn2cc(F)c(N3CC4(CN(C(=O)[C@H]5CCOC5)C4)C3)cc2c1N(C)c1nc(-c2ccc(F)cc2)c(C#N)s1 [Example 102, 2-[[2-ethyl-6-fluoro-5-[2-[(3S)-tetrahydrofuran-3-carbonyl]-2,6-diazaspiro[3.3]heptan-6-yl]pyrazolo[1,5-a]pyridin-3-yl]-methyl-amino]-4-(4-fluorophenyl)thiazole-5-carbonitrile]
1260 ± 209 ng·h/mL	889 ± 173 ng/mL	3.15 ± 1.8 h	CCc1nc2c(C)cc(N3CCN(CC(=O)N4CC(O)C4)CC3)cn2c1N(C)c1nc(-c2ccc(F)cc2)c(C#N)s1 [GLPG1690]
2620 ± 1920 ng·h/mL	477 ± 250 ng/mL	3.85 ± 1.3 h	CCn1nc2ncc(N3CC4(CN(C(=O)C5CCOCC5)C4)C3)cc2c1N(C)c1nc(-c2ccc(F)cc2)c(C#N)s1 [Compound 118, 2-((2-ethyl-5-(6-(tetrahydro-2H-pyran-4-carbonyl)-2,6-diazaspiro[3.3]heptan-2-yl)-2H-pyrazolo[3,4-b]pyridin-3-yl)(methyl)amino)-4-(4-fluorophenyl)thiazole-5-carbonitrile]
2050 ± 884 ng·h/mL	268 ± 76 ng/mL	3.29 ± 0.25 h	CCc1nn2cc(F)c(N3CCN(CC(=O)N4CC(O)C4)CC3)cc2c1N(C)c1nc(-c2ccc(F)cc2)c(C#N)s1 [Example 101, 2-[[2-ethyl-6-fluoro-5-[4-[2-(3-hydroxyazetidin-1-yl)-2-oxo-ethyl]piperazin-1-yl]pyrazolo[1,5-a]pyridin-3-yl]-methyl-amino]-4-(4-fluorophenyl)thiazole-5-carbonitrile]
